{"source": "patent US20030235646A1", "about": "“Method for improving quality of meat by supplementing pig diets and concentrates used therefor” (Lonza Inc., priority 2002, published 2003)", "key": {"[1]": {"tested_on": "finishing pigs (longissimus muscle)", "test": "Carcass quality measures of finishing pigs fed Carnitine and Paylean (Example 1)", "assay_type": "in vivo", "design": "key to L*: lightness: 100 = perfect white, 0 = absolute black; key to Firmness: score 1 = soft and watery, 5 = firm and dry; Hue angle / Drip loss: unit not given here", "conditions": "for Temperature: 45 minutes postmortem", "description": "Color is qualitatively measured using Minolta color-spectrometry, a process which evaluates the Hunter L* and a* values of the meat color, as well as by the saturation index and the Hue Angle value. Hunter L* value measures the lightness of the meat color and varies from 100 for perfect white to 0 for absolute black. Acceptable values for pork range from 35 to 55, with 40-45 values being most preferred by consumers.\nThe other Hunter value is related to the hue of the color of the meat, with increasing a* values indicating redness and decreasing a values indicating greenness. High quality pork has Hunter a* values which range from 7.5 to 12, and consumers prefer meat with 9-9.5 scores.\nHue Angle value measures the discoloration of meat. Increasing values indicate increasing discoloration of meat. Decreasing values indicate reduction of the discoloration. Acceptable pork Hue Angle values range from 48 to 54, and the preferred values range from 48-52.\nThe final spectrographic measurement is the saturation index, which is related to the strength of the color of the meat. Acceptable pork saturation index values range from 12 to 15.5, with values from 13-14.5 being preferred. The color of the meat is of particular importance in some export markets, such as Japan, Korea, Asia and South America. […] Acceptable marbling score ranges from 1 to 3, with 2.5 being preferred.\nDrip loss is a measurement of the ability of the sample to retain water. In this procedure, a standardized amount of lean pork muscle, i.e., a cubic centimeter, is weighed, then suspended in an airtight container from a hook for 24 hours. The difference in weight from beginning to end of the 24 hour period represents the amount of water loss or purge. The greater the amount of purge loss, the poorer the pork quality. Changes in the pH of pork associated with postmortem metabolism affect the isoelectric point of the various amino acids in protein, and thus can affect the protein's ability to bind water. Pork with high drip loss is termed in the industry as “exudative” which is undesirable to both meat producers and consumers.\nThe firmness of the meat is measured visually on the score from 1 to 5, 1 being soft and watery, 5 being firm and dry. The acceptable score is 2-4, and the preferred score is 2.5-3.5. This characteristic of pork has become important due to recent attempts to genetically improve the leanness of the meat. The desired leanness has been accompanied by a negative impact on the meat firmness. As a result, approximately 30% of the meat now going through packing houses has been categorized as PSE (Pale Soft Exudative meat) and is unacceptable to the consumer, thus causing economic loss to the meat producer according to the National Meat Producers Council. Thus, there is an urgent need in the art for means of improving the quality (firmness, color, marbling) and carcass characteristics of the pork.\n(§1) One hundred twenty-six gilts (initially 73.6 lb, PIC C22×L326) were allotted by weight and ancestry in a randomized complete block design to each of the nine experimental treatments arranged in a 3×3 factorial arrangement. There were two pigs/pen and seven replicates/treatment. Pigs were housed in an environmentally controlled building with 4-ft×4-ft slatted-floor pens.\nPigs were fed a corn-soybean meal diet composed of the following:\nL-carnitine (0, 25, or 50 ppm) was added to the diet from 73.6 lb until slaughter (approximately 240 lb). Paylean (a registered trademark of Eli Lilly Company for ractopamine) treatments (0, 4.5, or 9 g/ton) were fed for the last four weeks of the experiment. The basal diet was formulated to contain 1.10% lysine from 73.6 to 164 lb, and 1.00% lysine from 164 lb until the end of the experiment. These quantities of Paylean are equivalent to 0, 5, and 10 ppm of ractopamine in the feed, respectively. […]"}, "pork": {"tested_on": "pork", "test": "Follow-up studies of pork drip loss (Example 3, FIGS. 1 and 2)", "assay_type": "in vivo, pigs", "description": "Drip loss is a measurement of the ability of the sample to retain water. In this procedure, a standardized amount of lean pork muscle, i.e., a cubic centimeter, is weighed, then suspended in an airtight container from a hook for 24 hours. The difference in weight from beginning to end of the 24 hour period represents the amount of water loss or purge. […] Changes in the pH of pork associated with postmortem metabolism affect the isoelectric point of the various amino acids in protein, and thus can affect the protein's ability to bind water."}, "pigs": {"tested_on": "pigs", "test": "Growth performance of pigs (Example 1)", "assay_type": "in vivo", "conditions": "between 73.6 and 164 lb; P>0.64", "description": "as §1\nL-carnitine (0, 25, or 50 ppm) was added to the diet from 73.6 lb until slaughter (approximately 240 lb). Paylean (a registered trademark of Eli Lilly Company for ractopamine) treatments (0, 4.5, or 9 g/ton) were fed for the last four weeks of the experiment. The basal diet was formulated to contain 1.10% lysine from 73.6 to 164 lb, and 1.00% lysine from 164 lb until the end of the experiment. These quantities of Paylean are equivalent to 0, 5, and 10 ppm of ractopamine in the feed, respectively.\nWeights were obtained on every pig and feed disappearance was recorded every fourteen days during the experiment until the last four weeks, at which time measurements were taken weekly to calculate ADG, ADFI, and feed efficiency (F/G). One pig (closest to 240 lb) per pen was selected and slaughtered at the Kansas State University Meat Laboratory. […]\nData were analyzed as a randomized complete block. […]"}, "[2]": {"conditions": "Paylean 0 g/ton, Carnitine 25 ppm"}, "[3]": {"conditions": "Paylean 0 g/ton, Carnitine 25 ppm, score 1 to 5"}, "[4]": {"conditions": "Paylean 0 g/ton, Carnitine 50 ppm"}, "[5]": {"conditions": "Paylean 0 g/ton, Carnitine 50 ppm, score 1 to 5"}, "[6]": {"conditions": "with 4.5 or 9 g/ton Paylean, but not control pigs"}, "[7]": {"conditions": "with increasing levels, linear, P<0.04"}}}
{"smiles": "C[N+](C)(C)C[C@H](O)CC(=O)[O-]", "note": "[Carnitine, L-carnitine]", "values": [{"measurement": "Drip loss", "setting": "[1]; [2]", "value": 2.80}, {"measurement": "Hue angle", "setting": "[1]; [2]", "value": 67.38}, {"measurement": "L*", "setting": "[1]; [2]", "value": 58.01}, {"measurement": "PH 45 m postmortem", "setting": "[1]; [2]", "value": 6.55}, {"measurement": "PH 24 h postmortem", "setting": "[1]; [2]", "value": 5.79}, {"measurement": "Saturation index", "setting": "[1]; [2]", "value": 15.89}, {"measurement": "a*", "setting": "[1]; [2]", "value": 6.17}, {"measurement": "a*/b*", "setting": "[1]; [2]", "value": 0.42}, {"measurement": "b*", "setting": "[1]; [2]", "value": 14.61}, {"measurement": "Temperature", "setting": "[1]; [2]", "value": 34.83, "unit": "°C"}, {"measurement": "Firmness", "setting": "[1]; [3]", "value": 1.65}, {"measurement": "Marbling", "setting": "[1]; [3]", "value": 1.71}, {"measurement": "Visual color", "setting": "[1]; [3]", "value": 2.78}, {"measurement": "Drip loss", "setting": "[1]; [4]", "value": 2.07}, {"measurement": "Hue angle", "setting": "[1]; [4]", "value": 67.05}, {"measurement": "L*", "setting": "[1]; [4]", "value": 56.80}, {"measurement": "PH 45 m postmortem", "setting": "[1]; [4]", "value": 6.46}, {"measurement": "PH 24 h postmortem", "setting": "[1]; [4]", "value": 5.76}, {"measurement": "Saturation index", "setting": "[1]; [4]", "value": 16.44}, {"measurement": "a*", "setting": "[1]; [4]", "value": 6.45}, {"measurement": "a*/b*", "setting": "[1]; [4]", "value": 0.43}, {"measurement": "b*", "setting": "[1]; [4]", "value": 15.10}, {"measurement": "Temperature", "setting": "[1]; [4]", "value": 32.98, "unit": "°C"}, {"measurement": "Firmness", "setting": "[1]; [5]", "value": 1.93}, {"measurement": "Marbling", "setting": "[1]; [5]", "value": 1.85}, {"measurement": "Visual color", "setting": "[1]; [5]", "value": 3.14}, {"measurement": "visual color scores", "setting": "[1]; in control pigs", "value": "did not improve"}, {"measurement": "L* values", "setting": "[1]; increasing levels, fed with 4.5 or 9 g/ton of Paylean, longissimus muscle at 10th rib", "value": "lower L* values"}, {"measurement": "color, marbling, L*, a*/b* ratio and hue angle", "setting": "[1]; supplementing finishing pig diets", "value": "positively improve"}, {"measurement": "Visual color", "setting": "[1]; when 4.5 or 9 g/ton of Paylean was fed", "value": "did improve"}, {"measurement": "Hue angle values", "setting": "[1]; [6]", "value": "lower"}, {"measurement": "a*/b* values", "setting": "[1]; [6]", "value": "lower"}, {"measurement": "Drip loss measured 48 hours postmortem", "setting": "[1]; [7]", "value": "decreased"}, {"measurement": "temperature at 45 minutes postmortem", "setting": "[1]; [7]", "value": "decreased"}, {"measurement": "Ultimate (24-h) pH", "setting": "[1]; with increasing levels, linear, P<0.07", "value": "increased"}, {"measurement": "Measurements of b*", "setting": "[1]; with increasing levels, quadratic, P<0.05", "value": "decreased"}, {"measurement": "saturation index measured on the longissimus muscle", "setting": "[1]; with increasing levels, quadratic, P<0.07", "value": "tended to decrease"}, {"measurement": "effect on drip loss", "setting": "pork; 50 ppm, without ractopamine, two of the three studies, FIG. 1", "value": "small positive effect"}, {"measurement": "effect on reducing (improving) pork drip loss", "setting": "pork; added to diet containing ractopamine, FIG. 2", "value": "greater net positive effect"}, {"measurement": "growth performance of pigs", "setting": "pigs", "value": "did not affect"}]}
